In the supplement of paper PMC10307832:

Compound: COC1=CC=C(C=C1)COC2=C(C=C(C=C2)CC3=CN=C(N=C3N)N)OC [GW-2580] + Cc1nc(Nc2ncc(C(=O)Nc3c(C)cccc3Cl)s2)cc(N2CCN(CCO)CC2)n1 [Dasatinib] (partner 0.075 µM)
Experiment: relative viability (nuclei count vs DMSO), 5 days (fraction); higher = more cells survive
Conditions: first compound 0.08 µM
Method in brief: (§1)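 Lung cancer cell lines, seeded in 1536-well plates, were treated the following day by pin tool with a single drug or with five library-drug doses (not always all listed) in √10 steps on top of a fixed anchor-drug dose. Cells were fixed and nuclei stained in one step after 5 days, and nuclei were counted. Relative viability is the nuclei count for treated wells divided by that for vehicle wells, reported as medians of duplicate plates.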

Cell Line	relative viability
COR-L 105	0.314
LOU-NH91	0.555
ChaGo-K-1	0.663
NCI-H2405	0.203
HOP-62	0.756
LU99A	0.609
BEN	0.267
HARA	0.276
HCC-78	0.322
NCI-H322M	0.247
LCLC-97TM1	0.891
NCI-H2009	0.319
A-427	0.758
NCI-H441	0.679
NCI-H661	0.983
NCI-H1734	0.459
NCI-H460	0.574
NCI-H2347	0.341
SK-LU-1	0.178
201T	0.637
NCI-H1915	0.356
HCC-827	0.309
LXF-289	0.208
NCI-H23	0.847
NCI-H647	0.189
CAL-12T	0.485
NCI-H1651	0.307
EPLC-272H	0.353
NCI-H2228	0.557
NCI-H1355	0.831

Same assay, conditions: first compound 0.8 µM

Cell Line	relative viability
COR-L 105	0.373
LOU-NH91	0.719
ChaGo-K-1	0.552
NCI-H2405	0.205
HOP-62	0.728
LU99A	0.651
BEN	0.397
HARA	0.253
HCC-78	0.467
NCI-H322M	0.24
LCLC-97TM1	0.866
NCI-H2009	0.305
A-427	0.794
NCI-H441	0.764
NCI-H661	0.943
NCI-H1734	0.497
NCI-H460	0.722
NCI-H2347	0.294
SK-LU-1	0.207
201T	0.544
NCI-H1915	0.295
HCC-827	0.413
LXF-289	0.267
NCI-H23	0.921
NCI-H647	0.16
CAL-12T	0.443
NCI-H1651	0.447
EPLC-272H	0.385
NCI-H2228	0.551
NCI-H1355	0.779

Same assay, conditions: first compound 2.53 µM

Cell Line	relative viability
COR-L 105	0.28
LOU-NH91	0.517
ChaGo-K-1	0.605
NCI-H2405	0.222
HOP-62	0.639
LU99A	0.472
BEN	0.222
HARA	0.261
HCC-78	0.286
NCI-H322M	0.263
LCLC-97TM1	0.899
NCI-H2009	0.299
A-427	0.511
NCI-H441	0.582
NCI-H661	0.689
NCI-H1734	0.456
NCI-H460	0.452
NCI-H2347	0.244
SK-LU-1	0.149
201T	0.509
NCI-H1915	0.272
HCC-827	0.283
LXF-289	0.177
NCI-H23	0.757
NCI-H647	0.11
CAL-12T	0.438
NCI-H1651	0.43
NCI-H2228	0.441
NCI-H1355	0.468

Same assay, conditions: first compound 8 µM

Cell Line	relative viability
COR-L 105	0.342
LOU-NH91	0.553
ChaGo-K-1	0.587
NCI-H2405	0.213
HOP-62	0.697
LU99A	0.465
BEN	0.308
HARA	0.0615
HCC-78	0.298
NCI-H322M	0.253
LCLC-97TM1	0.821
NCI-H2009	0.27
A-427	0.735
NCI-H441	0.534
NCI-H661	0.685
NCI-H1734	0.447
NCI-H460	0.512
NCI-H2347	0.271
SK-LU-1	0.167
201T	0.532
NCI-H1915	0.273
HCC-827	0.245
LXF-289	0.217
NCI-H23	0.792
NCI-H647	0.224
CAL-12T	0.505
NCI-H1651	0.582
EPLC-272H	0.283
NCI-H2228	0.488
NCI-H1355	0.649

Compound: COC1=CC=C(C=C1)COC2=C(C=C(C=C2)CC3=CN=C(N=C3N)N)OC [GW-2580] + Nc1nc2[nH]cc(CCc3ccc(C(=O)N[C@@H](CCC(=O)O)C(=O)O)cc3)c2c(=O)[nH]1 [Pemetrexed] (partner 0.2 µM)
Experiment: as above
Conditions: first compound 0.08 µM
Method in brief: as §1

Cell Line	relative viability
COR-L 105	1.26
LOU-NH91	0.349
ChaGo-K-1	0.274
NCI-H2405	1.04
HOP-62	0.394
LU99A	0.246
BEN	1.91
HARA	0.289
HCC-78	0.972
NCI-H322M	0.582
LCLC-97TM1	0.158
NCI-H2009	1.06
A-427	0.936
NCI-H441	0.273
NCI-H661	1.04
NCI-H1734	0.404
NCI-H460	0.0622
NCI-H2347	0.468
SK-LU-1	1.09
201T	0.371
NCI-H1915	0.519
HCC-827	0.242
LXF-289	0.883
NCI-H23	0.581
NCI-H647	0.16
CAL-12T	1.32
NCI-H1651	0.605
EPLC-272H	0.325
NCI-H2228	0.408
NCI-H1355	1.09

Same assay, conditions: first compound 0.8 µM

Cell Line	relative viability
COR-L 105	1.08
LOU-NH91	0.381
ChaGo-K-1	0.256
NCI-H2405	1.2
HOP-62	0.285
LU99A	0.176
BEN	0.762
HARA	0.254
HCC-78	0.939
NCI-H322M	0.626
LCLC-97TM1	0.143
NCI-H2009	1.11
A-427	1.19
NCI-H441	0.26
NCI-H661	0.901
NCI-H1734	0.409
NCI-H460	0.0626
NCI-H2347	0.473
SK-LU-1	1.05
201T	0.351
NCI-H1915	0.53
HCC-827	0.259
LXF-289	0.96
NCI-H23	0.869
NCI-H647	0.185
CAL-12T	1.53
NCI-H1651	0.711
EPLC-272H	0.283
NCI-H2228	0.306
NCI-H1355	1.13

Same assay, conditions: first compound 2.53 µM

Cell Line	relative viability
COR-L 105	1.21
LOU-NH91	0.399
ChaGo-K-1	0.267
NCI-H2405	1.02
HOP-62	0.303
LU99A	0.193
BEN	0.615
HARA	0.29
HCC-78	0.909
NCI-H322M	0.676
LCLC-97TM1	0.179
NCI-H2009	0.945
A-427	0.842
NCI-H441	0.234
NCI-H661	0.957
NCI-H1734	0.425
NCI-H460	0.0647
NCI-H2347	0.464
SK-LU-1	0.878
201T	0.329
NCI-H1915	0.509
HCC-827	0.236
LXF-289	0.881
NCI-H23	0.777
NCI-H647	0.16
CAL-12T	1.24
NCI-H1651	0.578
EPLC-272H	0.342
NCI-H2228	0.338
NCI-H1355	0.914

Same assay, conditions: first compound 8 µM

Cell Line	relative viability
COR-L 105	0.962
LOU-NH91	0.412
ChaGo-K-1	0.262
NCI-H2405	0.799
HOP-62	0.288
LU99A	0.17
BEN	0.702
HARA	0.299
HCC-78	0.948
NCI-H322M	0.567
LCLC-97TM1	0.172
NCI-H2009	0.843
A-427	0.76
NCI-H441	0.262
NCI-H661	0.782
NCI-H1734	0.408
NCI-H460	0.0595
NCI-H2347	0.446
SK-LU-1	0.996
201T	0.346
NCI-H1915	0.486
HCC-827	0.276
LXF-289	0.85
NCI-H23	0.492
NCI-H647	0.229
CAL-12T	1.13
NCI-H1651	0.45
EPLC-272H	0.329
NCI-H2228	0.327
NCI-H1355	0.965

Compound: Cc1cnc(Nc2ccc(OCCN3CCCC3)cc2)nc1Nc1cccc(S(=O)(=O)NC(C)(C)C)c1 [Fedratinib] + CC(C)C[C@H](NC(=O)[C@H](Cc1ccccc1)NC(=O)c1cnccn1)B(O)O [Bortezomib] (partner 0.002 µM)
Experiment: as above
Conditions: first compound 0.1 µM
Method in brief: as §1

Cell Line	relative viability
COR-L 105	0.685
LOU-NH91	0.449
ChaGo-K-1	0.932
NCI-H2405	1.05
HOP-62	1.01
LU99A	1.12
BEN	0.673
HARA	1.41
HCC-78	0.439
NCI-H322M	1.19
LCLC-97TM1	0.636
NCI-H2009	0.99
A-427	0.95
NCI-H441	0.538
NCI-H661	0.81
NCI-H1734	1.06
NCI-H460	1.84
NCI-H2347	0.82
SK-LU-1	1.33
201T	1.01
NCI-H1915	0.986
HCC-827	1.09
LXF-289	1.02
NCI-H23	0.946
NCI-H647	0.976
CAL-12T	0.963
NCI-H1651	0.965
EPLC-272H	0.946
NCI-H2228	1.35
NCI-H1355	1.21

Same assay, conditions: first compound 0.3162 µM

Cell Line	relative viability
COR-L 105	0.839
LOU-NH91	0.526
ChaGo-K-1	1.1
NCI-H2405	0.77
HOP-62	0.92
LU99A	1.14
BEN	0.607
HARA	1.18
HCC-78	0.535
NCI-H322M	1.16
LCLC-97TM1	0.527
NCI-H2009	1.11
A-427	0.889
NCI-H441	0.484
NCI-H661	0.894
NCI-H1734	0.856
NCI-H460	1.13
NCI-H2347	0.874
SK-LU-1	1.23
201T	1.07
NCI-H1915	0.872
HCC-827	1.03
LXF-289	0.978
NCI-H23	0.943
NCI-H647	1.16
CAL-12T	1.07
NCI-H1651	0.951
EPLC-272H	0.83
NCI-H2228	0.866
NCI-H1355	1.24
